{
  "source": "paper PMC8333425",
  "about": "“Discovery of a dual Ras and ARF6 inhibitor from a GPCR endocytosis screen” (Nature Communications, 2021)",
  "tested_on": "β-arrestin1 recruitment to B2R",
  "experiment": "BRET recruitment of β-arrestin1 to B2R",
  "type": "cell-based, human",
  "experimental": "HEK293SL cells were seeded at a density of 7.5 × 10^5 cells per 100-mm dish and 24 h later, transiently transfected as such. For receptor internalization experiments, cells were transfected with 0.12 μg AT1R-RlucII, B2R-RlucII, or β2AR-RlucII and 0.48 μg of either rGFP-CAAX (to assess removal from the PM) or rGFP-FYVE (to assess accumulation in the endosomes). For β-arrestin recruitment assays, cells were transfected with 0.48 μg of receptor-YFP along with 0.12 μg of β-arrestin-RlucII. For β-arrestin/AP-2 binding experiments, cells were transfected with 1 μg Flag-AT1R, 1 μg β2-Adaptin-YFP, and 0.12 μg β-arrestin2-RlucII. For G protein activation, cells were transfected with 3 μg of sp-Flag-AT1R along with either 4.5 μg of the Gαq-polycistronic BRET sensor or 0.24 μg of the Gαi3-RlucII and 0.6 μg of GFP10-Gγ2 and Gβ1 sensors or 0.12 μg PKN-RBD-RlucII and 0.48 μg of rGFP-CAAX. For PKC activation, cells were transfected with 3 μg of sp-Flag-AT1R and 0.18 μg of the PKC sensor. For GTPase activation experiments, cells were transfected with 1 μg Flag-AT1R, 0.48 μg of rGFP-CAAX, and either 0.12 μg of GGA3-PBD-RlucII, PAK-CRIB-RlucII or Raf-RBD-RlucII. For biosensor validation experiments, cells were additionally transfected with 500 ng Flag-K-Ras-WT, Flag-K-Ras-G12V, Flag-K-Ras-SOS-CAAX, HA-ARF6-WT, HA-ARF6-T27N, Myc-Rac1-WT, Myc-Rac1-Q61L or Myc-Rac1-T17N. For PI3K/Akt activation experiments, cells were transfected with 0.48 μg of rGFP-CAAX and 0.12 μg of Akt (PH)-RlucII. After 18 h of transfection, the media was replaced and cells were divided for subsequent experiments. Cells were detached and seeded onto poly-L-ornithine-coated 96-well flat white bottom plates (BrandTech Scientific) at a density of 2.5 × 10^4 cells per well in media. The next day, cells were washed once with Tyrode’s buffer (140 mM NaCl, 2.7 mM KCl, 1 mM CaCl2, 12 mM NaHCO3, 5.6 mM D-glucose, 0.5 mM MgCl2, 0.37 mM NaH2PO4, 25 mM HEPES, pH 7.4) and left in Tyrode’s buffer. For kinetics of β-arrestin recruitment or β-arrestin binding to receptor and AP-2 experiments, cells were serum starved for 30 min, pretreated with 21 (50 µM) or Barbadin (100 µM) for 30 min, stimulated with 100 nM AngII or 1 µM BK and BRET signals were monitored at indicated times using a Victor X Light plate reader (PerkinElmer). Coelenterazine H (final concentration of 5 µM) was added 3–5 min prior to BRET measurements. Filter set was 460/80 nm and 535/30 nm for detecting the RlucII Renilla luciferase (donor) and YFP (acceptor) light emissions, respectively. The BRET ratio was determined by calculating the ratio of the light emitted by YFP over the light emitted by the RlucII. For G protein activation, cells were serum starved, pretreated with compounds for 30 min, stimulated with 100 nM AngII for 2 min (Gαq, Gαi3, and Rho sensors) or 5 min (PKC sensor). For the kinetics of GTPase and PI3K/Akt activation, cells were serum starved, pretreated with 21 (50 µM) or Wortmannin (200 nM) for 30 min, stimulated with ligand (100 nM AngII or 100 ng/ml EGF) and BRET signals were monitored at indicated times. For concentration-response curves, cells were serum-starved, pretreated with various concentrations of compounds for 30 min and stimulated with ligand (100 nM AngII, 1 µM BK, 10 µM Isoproterenol (Iso) or 100 ng/ml EGF) in Tyrode’s buffer for 30 min for receptor internalization, 10 min for ARF6, 2 min for Rac and Rho activation and 5 min for Ras activation and PI3K/Akt activation. BRET signals were monitored using a Synergy2 (BioTek) microplate reader and coelenterazine 400a (final concentrations of 5 µM) added 3–5 min prior to BRET measurements. Filter set was 410/80 nm and 515/30 nm for detecting the RlucII Renilla luciferase (donor) and rGFP/GFP10 (acceptor) light emissions, respectively. The BRET ratio was determined by calculating the ratio of the light emitted by rGFP/GFP10 over the light emitted by the RlucII.",
  "note": "Where “and” joins values, the source holds several entries; their conditions need not be identical. Equal values may be shown once. Entries after “also recorded” stand apart in the source; their conditions may differ.",
  "data": [
    {"smiles": "CC(C)C(=O)N1CCN(c2ccc(NC(=O)c3cc4ccccc4o3)cc2Cl)CC1", "note": "[Compound 21]", "values": [
      {"measurement": "β-arrestin1 recruitment to B2R at the PM", "setting": "50 μM", "result": "did not preclude; also recorded: lack of inhibition"},
      {"measurement": "BK-promoted BRET, Barr1", "setting": "Time 0 min", "result": 0},
      {"measurement": "BK-promoted BRET, Barr1", "setting": "Time 5 min, listed as Comp 21", "result": "0.04767 and 0.09406 and 0.08157"},
      {"measurement": "BK-promoted BRET, Barr1", "setting": "Time 10 min, listed as Comp 21", "result": "0.06518 and 0.1019 and 0.08421"},
      {"measurement": "BK-promoted BRET, Barr1", "setting": "Time 15 min, listed as Comp 21", "result": "0.06934 and 0.1045 and 0.09014"},
      {"measurement": "BK-promoted BRET, Barr1", "setting": "Time 30 min, listed as Comp 21", "result": "0.0673 and 0.09261 and 0.08457"},
      {"measurement": "BK-promoted BRET, Barr1", "setting": "Time 60 min, listed as Comp 21", "result": "0.06921 and 0.07361 and 0.07333"}
    ]}
  ]
}
